Laboratory results reported in patent publication US8183388B2, “Androgen receptor modulator and uses thereof” (Eli Lilly and Company, priority 2009, dated 2012).
pKi: −log10 of the molar value. Like-named read-outs stand apart in the source and are kept apart here.

Assays:
[1] = biological target: T1, human AR (androgen receptor) (Homo sapiens, UniProt P10275); test: Steroid hormone nuclear receptor binding assay, AR; conditions: HEK293 lysate overexpressing human AR, [3H]-methyltrienolone
T1 construct: expressed in transfected cells; host or cells: HEK293 (lysate, 293-AR)
T1 sequence (P10275 1-920): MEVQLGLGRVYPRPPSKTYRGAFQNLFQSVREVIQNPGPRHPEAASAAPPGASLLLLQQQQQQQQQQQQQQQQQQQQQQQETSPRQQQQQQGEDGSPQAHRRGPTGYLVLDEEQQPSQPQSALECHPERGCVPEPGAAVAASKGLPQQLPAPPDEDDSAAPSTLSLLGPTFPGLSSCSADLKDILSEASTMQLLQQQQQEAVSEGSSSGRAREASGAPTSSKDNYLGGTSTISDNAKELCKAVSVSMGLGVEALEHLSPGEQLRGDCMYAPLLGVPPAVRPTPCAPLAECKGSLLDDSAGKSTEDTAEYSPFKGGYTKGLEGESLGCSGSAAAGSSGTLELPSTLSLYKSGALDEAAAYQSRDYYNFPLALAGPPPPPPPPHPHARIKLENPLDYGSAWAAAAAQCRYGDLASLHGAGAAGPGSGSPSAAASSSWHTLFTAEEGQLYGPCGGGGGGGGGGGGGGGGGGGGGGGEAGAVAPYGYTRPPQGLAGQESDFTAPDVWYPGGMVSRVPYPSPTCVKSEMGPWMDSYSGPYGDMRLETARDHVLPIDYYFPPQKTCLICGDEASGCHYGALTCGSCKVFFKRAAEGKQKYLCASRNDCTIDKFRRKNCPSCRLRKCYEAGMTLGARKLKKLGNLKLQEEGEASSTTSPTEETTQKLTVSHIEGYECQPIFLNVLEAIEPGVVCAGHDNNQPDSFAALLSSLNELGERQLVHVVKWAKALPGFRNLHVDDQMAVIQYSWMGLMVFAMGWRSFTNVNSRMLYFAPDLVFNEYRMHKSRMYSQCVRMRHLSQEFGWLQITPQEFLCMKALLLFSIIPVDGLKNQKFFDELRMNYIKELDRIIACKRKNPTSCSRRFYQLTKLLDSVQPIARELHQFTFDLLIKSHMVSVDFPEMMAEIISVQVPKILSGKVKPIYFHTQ
Method: Cell lysates from human embryonic kidney HEK293 cells overexpressing human MR (mineralocorticoid receptor), GR (glucocorticoid receptor), AR (androgen receptor), or PR (progesterone receptor) are used for receptor-ligand competition binding assays to determine Ki values. Typical procedures are provided below
Briefly, steroid receptor competition binding assays are run in a buffer containing 20 mM HEPES buffer (pH=7.6), 0.2 mM EDTA, 75 mM NaCl, 1.5 mM MgCl2, 20% glycerol, 20 mM sodium molybdate, 0.2 mM DTT (dithiothreitol), 20 μg/mL aprotinin and 20 μg/mL leupeptin (assay buffer). […] Assays are typically run in 96-well format. Competing test compounds are added at various concentrations ranging from about 0.01 nM to 10 μM. Non-specific binding is determined in the presence of 500 nM aldosterone for MR binding, 500 nM dexamethasone for GR binding, or 500 nM methyltrienolone for AR and PR binding. The binding reactions (140 μL) are incubated overnight at 4° C., then 70 μL of cold charcoal-dextran buffer (containing per 50 mL of assay buffer, 0.75 g of charcoal and 0.25 g of dextran) is added to each reaction. […] After an incubation of 2 hours, plates are read in a Wallac Microbeta counter.
The Kd for [^3H]-aldosterone for MR binding, [^3H]-dexamethasone for GR binding, [^3H]-methyltrienolone for AR binding, or [^3H]-methyltrienolone for PR binding, is determined by saturation binding. […]

[2] = Determination of plasma exposure; type: in vivo; conditions: Sprague Dawley, rat, male rats, read-out: AUC (area under the plasma concentration time curve)
Method: Groups of male Sprague Dawley rats (6 animals/group) are dosed either orally (dosing volume of 1.25 ml/kg; vehicle of 5% DMSO/95% HEC) or subcutaneously (dosing volume of 2.5 ml/kg; vehicle of 5% DMSO/95% soybean oil) with 10 mg/kg p.o, 1 mg/kg s.c., 3 mg/kg s.c., or 10 mg/kg s.c. of the compound of Formula (I), once per day for two weeks. Starting on the second to last day of dosing, plasma samples are collected at 0.5, 2, 4, or 24 hours post-dosing (two animals are sampled at each time-point, with the same animals being used for the 0.5 and 24 hour time-point samples). The plasma concentration of the compound of Formula (I) is determined for each collected sample using LC/MS/MS (Sciex API-4000 LC/MS/MS system). The resulting concentrations are used to construct an area under the plasma concentration time curve (AUC) for each administered dose as an index of exposure. Following a protocol essentially as described above, the administered doses of the compound of Formula (I) produced the following AUC values: 10 mg/kg p.o: about 295,511 ng·hr./ml.; 1 mg/kg s.c.: about 38,963 ng·hr./ml.; 3 mg/kg s.c.: about 137,056 ng·hr./ml.; and 10 mg/kg s.c.: about 218,537 ng·hr./ml.

`CC(C)OC(=O)N[C@H]1Cc2c(n(C[C@H]3OCC[C@@H]3O)c3ccc(C#N)cc23)C1` [compound of Formula (I), [(S)-7-Cyano-4-((2R,3S)-3-hydroxytetrahydrofuran-2-ylmethyl)-1,2,3,4-tetrahydrocyclopenta[b]indol-2-yl]-carbamic acid isopropyl ester] showed a pKi [1] of roughly 8.00, an AUC ([2]; po, 10 mg/kg p.o. once per day for two weeks, 5% DMSO/95% HEC) of roughly 296 µg·h/mL and an AUC ([2]; sc, 1 mg/kg s.c. once per day for two weeks, 5% DMSO/95% soybean oil) of roughly 39 µg·h/mL. For the same molecule, the AUC ([2]; sc, 3 mg/kg s.c. once per day for two weeks, 5% DMSO/95% soybean oil) was roughly 137 µg·h/mL and the AUC ([2]; sc, 10 mg/kg s.c. once per day for two weeks, 5% DMSO/95% soybean oil) was roughly 219 µg·h/mL.
